Reference: patent WO2009115235A1, “Pde inhibitors for the treatment of pulmonary hypertension” (Bayer Schering Pharma AG, priority 2008, dated 2009)

What was measured:
[1] = system: isolated rat pulmonary vessels; assay: Relaxation of isolated small pulmonary arteries precontracted with norepinephrine (organ bath / vessel myograph); design: species or system rat (male Wistar); conditions: comparison of vardenafil, sildenafil and tadalafil
conscious Beagle dogs = assay: Measurement of Pulmonary Artery Pressure in conscious telemetric Beagle dogs; format: in vivo, dog (male Beagle); conditions: for lowering of pulmonary artery pressure (in words): conscious dogs; for reduction of U44096-induced PH (pulmonary artery pressure): conscious Beagle dogs, significant

SMILES: CCCc1nc(C)c2c(=O)[nH]c(-c3cc(S(=O)(=O)N4CCN(CC)CC4)ccc3OCC)nn12 [Vardenafil, vardenafil]
- relaxation of rat pulmonary vessels (ranking of PDE5 inhibitors) [1]: most prominent
- relaxation of rat pulmonary vessels (ranking of PDE5 inhibitors) ([1]; listed as vardenafil): relaxed pulmonary vessels of rat more potently then the PDE5 inhibitors sildenafil and tadalafil
- decrease of pulmonary artery pressure, inhaled vs oral (in words) (conscious Beagle dogs; inhalation compared with oral application, conscious dogs with telemetric implant): more potently decreased pulmonary artery pressure then Vardenafil applied orally
- lowering of pulmonary artery pressure (in words) (conscious Beagle dogs; inhalation, 30μg/kg, compared with 10-fold higher oral dose): could lower pulmonary artery pressure as significantly as with the 10-fold higher oral dose
- reduction of U44096-induced PH (pulmonary artery pressure) (conscious Beagle dogs; inhaled, 30μg/kg nebulized within 10 minutes): 30%
- duration of the decrease of the pulmonary artery pressure (conscious Beagle dogs; inhaled, 30μg/kg/10 min, whole observation period 3 hours): ≥ 3 h
- reduction of U44096-induced PH (pulmonary artery pressure) (conscious Beagle dogs; oral, 300μg/kg): 30%
- lowering of pulmonary artery pressure (in words) (conscious Beagle dogs; oral, 300μg/kg): significantly lowered pulmonary artery pressure
